Measured values reported in ChEMBL document CHEMBL4342505, “Achieving In Vivo Target Depletion through the Discovery and Optimization of Benzimidazolone BCL6 Degraders” (J Med Chem, 2020).
Converted amounts (≈) assume the structure as drawn.

Key:
[1] = Kinetic solubility in PBS buffer containing 1% DMSO at pH 7.4 incubated for 2 hrs by HPLC analysis; assay type: physicochemical; conditions: read-out: Kinetic_solubility
[2] = Kinetic solubility in HEPES buffer containing 5% DMSO at pH 8 incubated for 20 hrs by NMR analysis; assay type: physicochemical; conditions: read-out: Kinetic_solubility
[3] = biological target: T1, B-cell lymphoma 6 protein (Homo sapiens, UniProt P41182)
Description: Induction of BCL6 degradation in human SUDHL-4 cells incubated for 2 hrs by immunofluorescence analysis

[4] = biological target: T1, B-cell lymphoma 6 protein; remark: listed apart in the source
Description: Inhibition of recombinant His-tagged human BCL6 expressed in Escherichia coli BL21 AI cell incubated for 2 hrs by TR-FRET assay

[5] = Lipophilicity, log D of compound at pH 7.4; assay type: physicochemical; conditions: buffer
[6] = Metabolic stability in CD-1 mouse liver microsomes assessed as intrinsic clearance at 1 uM measured upt0 30 mins by LC-MS/MS analysis; assay type: ADME, Microsome; conditions: 0.5 h
BCL-6/NCOR2 = BCL-6/NCOR2 (Homo sapiens, UniProt P41182)
Description: Inhibition of recombinant human Nanoluc-tagged BCL6/Halo-tagged SMRT transfected in human HEK293T cells assessed as reduction in BCL6/SMRT interaction incubated for 6 hrs by NANOBRET assay

OCI-Ly1 = test: Antiproliferative activity agianst human OCI-LY1 cells assessed as growth inhibition incubated for 14 days by CellTiter Glo reagent based assay
OCI-Ly3 = test: Antiproliferative activity agianst human OCI-LY3 cells assessed as growth inhibition incubated for 14 days by CellTiter Glo reagent based assay
SUD4 = test: Antiproliferative activity agianst human SUDHL4 cells assessed as growth inhibition incubated for 14 days by CellTiter Glo reagent based assay; assay type: functional; conditions: SU-DHL-4, […]
[7] = Permeability of compound by PAMPA assay; assay type: ADME
[8] = biological target: T1, B-cell lymphoma 6 protein; test: Induction of BCL6 degradation in human SUDHL-4 cells incubated for 4 hrs by Western blot analysis; assay type: cell-based
[9] = biological target: T1, B-cell lymphoma 6 protein; test: Induction of BCL6 degradation in human OCI-LY1 cells incubated for 4 hrs by Western blot analysis; assay type: cell-based

Structure (SMILES)	solubility kinetic at 20 h [2]	DC50 [3]	IC50 [4]	further results
Cn1c(=O)n(CCC(C)(C)O)c2cc(Nc3ccnc(Cl)c3C#N)ccc21	< 30 µM			solubility kinetic at 2 h [1]: 25 µM (≈ 9.65 µg/mL)
Cn1c(=O)n(CCC(C)(C)O)c2cc(Nc3nc(N4CCC(C(F)(F)F)CC4)ncc3Cl)ccc21	22 µM (≈ 11.3 µg/mL)	> 10 µM	0.96 µM	
Cn1c(=O)n(CCC(C)(C)O)c2cc(Nc3ccnc(Cl)c3Cl)ccc21	251 µM (≈ 99.2 µg/mL)		1.4 µM	
N#Cc1c(NCC2CC2)ccnc1Cl	300 µM (≈ 62.3 µg/mL)			
CC1CN(c2ncc(Cl)c(Nc3ccc4c(c3)n(CCC(C)(C)O)c(=O)n4C)n2)CCC1(F)F (stereo unspecified)	24 µM (≈ 11.9 µg/mL)	0.18 µM	0.33 µM	logD [5]: 3.9; CLH [6]: 66 µL/min/mg
Cn1c(=O)n(CCC(C)(C)O)c2cc(Nc3c(Cl)cncc3Cl)ccc21	126 µM (≈ 49.8 µg/mL)		37 µM	
Cn1c(=O)n(C)c2cc(Nc3ccnc(Cl)c3C#N)ccc21	< 30 µM			solubility kinetic at 2 h [1]: 16 µM (≈ 5.02 µg/mL)
Cn1c(=O)n(CCC(C)(C)O)c2cc(Nc3nc(N4CC5CCC(C4)C5(F)F)ncc3Cl)ccc21	22 µM (≈ 11.2 µg/mL)	> 10 µM	0.71 µM	
Cc1ccnn1-c1ncc(Cl)c(Nc2ccc3c(c2)n(CCC(C)(C)O)c(=O)n3C)n1	420 µM (≈ 186 µg/mL)	> 10 µM	0.43 µM	IC50 (BCL-6/NCOR2): 2.7 µM
CC[C@@H](O)Cn1c(=O)n(C)c2ccc(Nc3ccnc(Cl)c3C#N)cc21	307 µM (≈ 114 µg/mL)		4.5 µM	
Cc1nc(C)c(-c2ncc(Cl)c(Nc3ccc4c(c3)n(CCC(C)(C)O)c(=O)n4C)n2)s1	< 30 µM	> 10 µM	1.4 µM	
N#Cc1c(NCc2ccccc2)ccnc1Cl	60 µM (≈ 14.6 µg/mL)			
C[C@@H]1CN(c2cc(Nc3ccc4c(c3)n(CCC(C)(C)O)c(=O)n4C)c(Cl)cn2)C[C@H](C)O1	83 µM (≈ 39.3 µg/mL)		0.93 µM	IC50 (BCL-6/NCOR2): 5 µM
COCC1CN(c2ncc(Cl)c(Nc3ccc4c(c3)n(CCC(C)(C)O)c(=O)n4C)n2)CCC1(F)F (stereo unspecified)	72 µM (≈ 37.8 µg/mL)	0.44 µM		logD [5]: 3.5; CLH [6]: > 1000 µL/min/mg
Cn1c(=O)n(CCC(C)(C)O)c2cc(Nc3nc(N4CCCC(CO)C4)ncc3Cl)ccc21 (stereo unspecified)	442 µM (≈ 210 µg/mL)	0.45 µM	0.13 µM	logD [5]: 2.1; CLH [6]: 370 µL/min/mg
Cn1c(=O)n(CCC(C)(C)O)c2cc(Nc3nc(Cl)ncc3Cl)ccc21	361 µM (≈ 143 µg/mL)			
Cc1ccn(-c2ncc(Cl)c(Nc3ccc4c(c3)n(CCC(C)(C)O)c(=O)n4C)n2)n1	253 µM (≈ 112 µg/mL)	> 10 µM	0.4 µM	IC50 (BCL-6/NCOR2): 2.5 µM
Cn1c(=O)n(CCC(C)(C)O)c2cc(Nc3nc(N4CCC(F)(F)C(CO)C4)ncc3Cl)ccc21 (stereo unspecified)	294 µM (≈ 150 µg/mL)			GI50 (OCI-Ly1): 0.5 µM; logD [5]: 2.5; GI50 (OCI-Ly3): 2.9 µM; GI50 (SUD4): 0.41 µM
CCC(C#N)Cn1c(=O)n(C)c2ccc(Nc3ccnc(Cl)c3C#N)cc21 (stereo unspecified)	< 30 µM			solubility kinetic at 2 h [1]: 9.2 µM (≈ 3.5 µg/mL)
Cn1c(=O)n(CCC(C)(C)O)c2cc(Nc3ccncc3Cl)ccc21	526 µM (≈ 190 µg/mL)		0.99 µM	
C[C@@H]1C[C@H](C)CN(c2ncc(Cl)c(Nc3ccc4c(c3)n(CCC(C)(C)O)c(=O)n4C)n2)C1	< 30 µM			permeability [7]: 36 ×10⁻⁶ cm/s; GI50 (OCI-Ly1): 0.28 µM; Activity [8]: Dose-dependent effect; Activity [9]: Dose-dependent effect; solubility kinetic at 2 h [1]: 6 µM (≈ 2.84 µg/mL); logD [5]: 4.7; GI50 (OCI-Ly3): 3.1 µM; CLH [6]: 2440 µL/min/mg; GI50 (SUD4): 0.35 µM
CCCCn1c(=O)n(C)c2ccc(Nc3ccnc(Cl)c3C#N)cc21	53 µM (≈ 18.9 µg/mL)		6.6 µM	

Structure (SMILES)	solubility kinetic at 20 h [2]	DC50 [3]	IC50 [4]	further results
Cn1c(=O)n(CCC(C)(C)O)c2cc(Nc3nc(N4CCCC(C#N)C4)ncc3Cl)ccc21 (stereo unspecified)	330 µM (≈ 155 µg/mL)	> 10 µM	0.39 µM	
Cn1c(=O)n(C)c2cc(Nc3ncccc3C#N)ccc21	300 µM (≈ 83.8 µg/mL)			
Cn1c(=O)n(CCC(C)(C)O)c2cc(Nc3nc(-n4cccn4)ncc3Cl)ccc21	146 µM (≈ 62.5 µg/mL)	> 10 µM	0.71 µM	IC50 (BCL-6/NCOR2): 5.9 µM
Cc1cc(C)n(-c2ncc(Cl)c(Nc3ccc4c(c3)n(CCC(C)(C)O)c(=O)n4C)n2)n1	404 µM (≈ 184 µg/mL)	> 10 µM	0.26 µM	IC50 (BCL-6/NCOR2): 1.8 µM
C[C@@H](O)CCn1c(=O)n(C)c2ccc(Nc3ccnc(Cl)c3C#N)cc21	308 µM (≈ 115 µg/mL)			
C[C@@H]1CN(c2ncc(Cl)c(Nc3ccc4c(c3)n(CCC(C)(C)O)c(=O)n4C)n2)C[C@H](C)O1	< 30 µM	> 10 µM	0.15 µM	solubility kinetic at 2 h [1]: 95 µM (≈ 45.1 µg/mL); CLH [6]: 104 µL/min/mg; IC50 (BCL-6/NCOR2): 1.76 µM
CSc1ncc(Cl)c(Nc2ccc3c(c2)n(CCC(C)(C)O)c(=O)n3C)n1	337 µM (≈ 137 µg/mL)		0.68 µM	
C[C@@H]1C[C@H](C)CN(c2cc(Nc3ccc4c(c3)n(CCC(C)(C)O)c(=O)n4C)c(Cl)cn2)C1	12 µM (≈ 5.66 µg/mL)	1.8 µM	3.5 µM	
Cc1cc(C)n(-c2cc(Nc3ccc4c(c3)n(CCC(C)(C)O)c(=O)n4C)c(Cl)cn2)n1	135 µM (≈ 61.4 µg/mL)	> 10 µM	0.79 µM	IC50 (BCL-6/NCOR2): 4.6 µM
CC[C@H](O)Cn1c(=O)n(C)c2ccc(Nc3ccnc(Cl)c3C#N)cc21	313 µM (≈ 116 µg/mL)		4.6 µM	
Cn1c(=O)n(CCC(C)(C)O)c2cc(Nc3nc(N4CCCC(C(F)(F)F)C4)ncc3Cl)ccc21 (stereo unspecified)	< 30 µM	0.75 µM	0.4 µM	logD [5]: 4.2; CLH [6]: 630 µL/min/mg
Cn1c(=O)n(C)c2cc(Nc3cc(SCc4ccccc4)ncn3)ccc21	< 30 µM			
Cn1c(=O)n(CCC(C)(C)O)c2cc(Nc3nc(N4CCOCC4)ncc3Cl)ccc21	370 µM (≈ 165 µg/mL)		0.27 µM	IC50 (BCL-6/NCOR2): 2.3 µM
C[C@@H]1CN(c2ncc(Cl)c(Nc3ccc4c(c3)n(CCC(C)(C)O)c(=O)n4C)n2)C[C@H](C)N1C	343 µM (≈ 167 µg/mL)	> 10 µM	0.19 µM	IC50 (BCL-6/NCOR2): 1.55 µM
CCC(O)Cn1c(=O)n(C)c2ccc(Nc3ccnc(Cl)c3C#N)cc21 (racemic)	298 µM (≈ 111 µg/mL)		5.4 µM	
CC1CCCN(c2ncc(Cl)c(Nc3ccc4c(c3)n(CCC(C)(C)O)c(=O)n4C)n2)C1 (stereo unspecified)	44 µM (≈ 20.2 µg/mL)	0.52 µM	0.64 µM	logD [5]: 4.2; CLH [6]: 2210 µL/min/mg; IC50 (BCL-6/NCOR2): 13 µM
Cn1c(=O)n(CCC(C)(C)O)c2cc(Nc3nc(N4C5CCC4CC(F)(F)C5)ncc3Cl)ccc21	< 30 µM			
C[C@H](O)CCn1c(=O)n(C)c2ccc(Nc3ccnc(Cl)c3C#N)cc21	251 µM (≈ 93.3 µg/mL)			
Cn1ccnc1-c1ncc(Cl)c(Nc2ccc3c(c2)n(CCC(C)(C)O)c(=O)n3C)n1	113 µM (≈ 49.9 µg/mL)	> 10 µM	0.48 µM	IC50 (BCL-6/NCOR2): 4.6 µM
Cn1c(=O)n(CCC(C)(C)O)c2cc(Nc3nc(N4CCCCC4)ncc3Cl)ccc21	70 µM (≈ 31.1 µg/mL)		1 µM	
Cn1c(=O)n(CCC(C)(C)O)c2cc(Nc3ncnc(Cl)c3Cl)ccc21	344 µM (≈ 136 µg/mL)		2.1 µM	
CN(C)c1ncc(Cl)c(Nc2ccc3c(c2)n(CCC(C)(C)O)c(=O)n3C)n1	223 µM (≈ 90.3 µg/mL)		1.2 µM	
